Key:
[1] = tested on: SUM-159 cells with LIPA KO; test: CellTiter-Glo, SUM-159 LIPA KO cells; format: cell-based; conditions: Homo sapiens, SUM159; SUM-159 stably transfected mCherry-RAMP4, CellTiter-Glo
Method: (§1) Cell viability assays: Cells were seeded in 96-well plates (2×10^3 cells/well) one day before the treatment. Cells were treated with varying concentrations of ERX-41 or ERX-11 analogs for 3-6 days. Then effects of ERX-41 or ERX-11 analogs on cell viability were measured in triplicate or sextuplicate with multiple biological replicates using the WST-1 (Promega), MTT as previously described^33 or CellTiter-Glo 2.0 (Promega) assays.
Lentiviral constructs cloning: LentiCRISPRv2 vector was used for CRSPR KO experiments. sgRNAs, which were chosen from human CRISPR knockout pooled library, were cloned into lentiCRISPRv2 vector^34. Human LIPA cDNA (GenBank: BC012287) or mouse LIPA cDNA (NM_021460) were clone into pWPI for over expression experiments. For TurboID experiment, the LIPA-TurboID sequence was cloned into pCW57-MCS1-2A-MCS2 vector. LentiCRISPR v2 was purchased from Addgene (Addgene #52961; //n2t.net/addgene:52961; RRID:Addgene_52961) (via Feng Zhang). pWPI was purchased from Addgene (Addgene #12254; //n2t.net/addgene:12254; RRID:Addgene_12254) (via Didier Trono). pCW57-MCS1-2A-MCS2 was purchased from Addgene (#71782) (via Adam Karpf). Human LIPA gene is referred as LIPA, while mouse LIPA gene is referred as mLIPA in this disclosure. […]

[2] = tested on: 21 human preclinical TNBC cell line models; test: CellTiter-Glo cell viability, TNBC cell lines; format: cell-based; conditions: 21 TNBC cell lines, read-out: anti-proliferative IC50, CellTiter-Glo
Method: as §1

vinculin = target: T1, vinculin (Homo sapiens, UniProt P18206); test: Cellular thermal shift assay, vinculin; format: binding; conditions: 10 μM, SUM-159 cells
T1 construct: heat stability of LAL or vinculin protein in SUM-159 cells; endogenous in cells; host or cells: SUM-159
Method: Cellular Thermal Shift Assay (CETSA): Cellular Thermal Shift Assays were performed as described previously^36. Briefly, cells were treated with DMSO or 10 μM ERX-41 for 30 min, then trypsinized, pelleted and resuspended in PBS supplemented with Halt protease inhibitor cocktail (Thermo Scientific), with DMSO or 10 μM ERX-41. Resuspended cells were aliquoted into PCR strips. The cells were incubated in thermal cycler (Bio-rad) at gradient temperatures for 3 minutes, followed by incubation at 25° C. for 3 minutes. Then cells were snap-frozen in liquid nitrogen. Freeze-thaw the cells twice using liquid nitrogen. Then transfer samples into Eppendorf tubes, followed by briefly vortex and centrifuge at 20,000 g for 20 minutes at 4° C. Mix cleared cell lysates with ⅓ volume of 4× Laemmli sample buffer. After boiling, cell lysates were resolved in SDS-PAGE followed by western blotting.

ER Alpha-LBD (GST) = target: T2, ER Alpha-LBD (GST) (Homo sapiens, UniProt P03372); test: LanthaScreen TR-FRET ER alpha Coactivator Assay, antagonist mode; format: binding; conditions: 2 h incubation
T2 construct: 3.5 nM ER Alpha-LBD (GST); purchased life technologies A15885
T2 sequence (P03372 311-547 limits assumed): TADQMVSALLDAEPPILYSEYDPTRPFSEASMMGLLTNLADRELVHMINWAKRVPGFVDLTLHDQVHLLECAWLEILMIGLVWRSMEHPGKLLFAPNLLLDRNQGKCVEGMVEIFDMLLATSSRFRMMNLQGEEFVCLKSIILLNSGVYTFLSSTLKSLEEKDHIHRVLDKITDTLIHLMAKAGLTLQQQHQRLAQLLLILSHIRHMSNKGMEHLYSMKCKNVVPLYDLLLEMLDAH

TNBC cells = test: Ca^2+ flux in TNBC cells; format: cell-based; conditions: data not shown
HMEC cells = test: Live cell imaging with SYTOX Green, cell death in HMEC; format: cell-based
Method: Live cell imaging: Live cell images were acquired by Lionheart FX automated microscope (BioTek). Cells were plated one day before the experiment. For cell death assay, 0.2 μM SYTOX Green was added into the plate 15 min before the experiment.

primary TNBC PDEs = test: TNBC patient-derived explant (PDE) cultures ex vivo; format: cell-based, human
Source text: TNBC patient-derived explant (PDE) studies: For PDE studies excised tissue samples were processed and cultured ex vivo as previously described. De-identified patient tumors were obtained from the UTSW Tissue Repository after institutional review board approval (STU-032011-187). Inclusion criteria included women with prior histologic confirmation of TNBC who were undergoing surgical extirpation or biopsy of their primary tumor. Prior treatment with chemotherapy and/or radiation was allowed. Exclusion criteria included concurrent or prior diagnosis of other malignancies or prior evidence of ERα+ or HER2+ breast cancer. All cases were reviewed by the UTSW Tissue Repository in advance and patients were consented for their tissue to be used for laboratory research. Only de-identified information was shared with the laboratory. None of the laboratory personnel had access to additional patient information. No attrition was noted. Briefly, fresh tumor samples were incubated on gelatin sponges in culture medium containing 10% FBS, followed by treatment with either vehicle or presence of 2.5 μM ERX-41 for 72 h. Representative tissues were fixed in 10% formalin at 4° C. overnight and subsequently processed into paraffin blocks. Sections were then processed for immunohistochemical analysis.
Immunohistochemistry: Immunohistochemical studies were performed as described previously.^7 For the immunohistochemical studies, tissue sections were blocked in background sniper (Biocare Medical, RS966L) followed by overnight incubation with primary antibodies anti-Ki-67 antibody (1:1000, GeneTex cat #GTX16667 RRID:AB_422351) (link), anti-CHOP antibody (1:2000, Sigma, Cat #HPA068416), anti-PERK (phospho T982) antibody (1:150, Abcam Cat #ab192591, RRID:AB_2728666) link)), anti-phospho-eIF2α (Ser51) (1:50, Cell signaling, cs3398) and subsequent secondary antibody incubation for 60 min at room temperature. Immunoreactivity was visualized by using the DAB substrate and counterstained with hematoxylin (Vector Lab, Inc.). […]

T1 sequence (P18206 1-1066 isoform P18206-2): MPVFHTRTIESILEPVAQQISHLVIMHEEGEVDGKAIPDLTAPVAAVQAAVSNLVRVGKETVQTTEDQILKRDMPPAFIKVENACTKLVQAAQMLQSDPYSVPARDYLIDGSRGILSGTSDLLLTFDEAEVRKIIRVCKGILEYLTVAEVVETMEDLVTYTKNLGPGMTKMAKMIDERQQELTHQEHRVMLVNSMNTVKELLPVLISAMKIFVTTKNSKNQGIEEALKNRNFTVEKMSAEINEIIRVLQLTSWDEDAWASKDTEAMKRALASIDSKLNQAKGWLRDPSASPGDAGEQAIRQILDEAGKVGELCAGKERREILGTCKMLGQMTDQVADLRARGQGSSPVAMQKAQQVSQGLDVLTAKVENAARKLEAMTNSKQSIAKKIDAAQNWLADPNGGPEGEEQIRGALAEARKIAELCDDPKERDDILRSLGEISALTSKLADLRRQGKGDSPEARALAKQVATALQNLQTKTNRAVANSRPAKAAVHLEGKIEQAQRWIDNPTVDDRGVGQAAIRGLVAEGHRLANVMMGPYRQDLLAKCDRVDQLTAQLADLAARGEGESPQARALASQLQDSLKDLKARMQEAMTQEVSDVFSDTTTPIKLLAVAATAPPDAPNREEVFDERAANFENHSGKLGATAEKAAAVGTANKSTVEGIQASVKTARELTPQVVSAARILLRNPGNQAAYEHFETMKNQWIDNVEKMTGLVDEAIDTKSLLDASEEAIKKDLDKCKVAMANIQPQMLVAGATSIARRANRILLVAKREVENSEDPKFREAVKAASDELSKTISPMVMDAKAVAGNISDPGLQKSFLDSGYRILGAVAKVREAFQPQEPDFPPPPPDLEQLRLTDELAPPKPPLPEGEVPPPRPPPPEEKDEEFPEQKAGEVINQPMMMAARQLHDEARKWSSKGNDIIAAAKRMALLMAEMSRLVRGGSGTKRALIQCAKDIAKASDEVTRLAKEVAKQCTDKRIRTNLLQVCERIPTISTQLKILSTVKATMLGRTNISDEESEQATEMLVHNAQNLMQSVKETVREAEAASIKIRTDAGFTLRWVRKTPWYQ

CC(C)COc1cc(C(=O)Nc2ccc(C(=O)N[C@H]3CC[C@H](C)CC3)cc2OCC(C)C)ccc1NC(=O)c1ccc([N+](=O)[O-])c(OCCO)c1 [ERX-41]
IC50 [1]: ~4 µM
IC50 [2]: < 0.25 µM
thermal stability of vinculin (vinculin): did not affect vinculin thermal stability
interaction with ERα LBD (ER Alpha-LBD (GST)): does not interact with ERG LBD
Ca^2+ flux within TNBC cells (TNBC cells): not able to induce Ca^2+ flux
induction of cell death in HMEC (HMEC cells): did not significantly induce cell death
UPR pathway markers in explants (primary TNBC PDEs; IHC, within 24 h after treatment): enhanced pPERK, CHOP (protein product of DDIT3 gene) and peIF2a staining
apoptosis (cleaved caspase 3 staining) of explants (primary TNBC PDEs; ex vivo): increased apoptosis
proliferation (Ki67 staining) of explants (primary TNBC PDEs; ex vivo): decreased proliferation
